Measurements: patent publication US20030044412A1, “Membrane estrogen receptor-directed therapy in breast cancer” (priority 2002, published 2003)
Read-outs that look alike come from different tables or passages of the source.

Tests used:
[1] = tested on: MCF-7 human breast cancer cells; test: Assay of cell proliferation in vitro (cell counts); format: cell-based; conditions: for cell growth after brief treatment with BSA conjugate: 0.5 μM for 10 min, 72 h in estrogen-free media
[2] = tested on: MAPK, ERK-1 (p44) and ERK-2 (p42); test: p44/42 MAPK phosphorylation/activity in MCF-7 cells; format: cell-based, human
[3] = tested on: Akt kinase; test: Akt kinase activity (phosphorylated GSK-3 densitometry) in MCF-7 cells; format: cell-based, human
[4] = tested on: surface membrane ER of MCF-7 (MCF-7 PAR) breast cancer cells; test: Membrane labeling with E2β-BSA-FITC, fluorescent microscopy and flow cytometry; format: binding, human
[5] = tested on: MAPK, ERK-1 (p44) and ERK-2 (p42); conditions: independent report (40); cited from earlier work
[6] = tested on: estrogen receptor; test: Serine phosphorylation of estrogen receptor in human breast cancer cells; format: cell-based; conditions: prior exposure, 15 minutes after estrogen
Description: FIG. 12 is a gel showing that the MAPKK (MEK) inhibitor, PD 98059 (PD), reduces estrogen (E2)-induced serine phosphorylation of estrogen receptor. Serine phosphorylation of estrogen receptor in human breast cancer cells was assessed at 15-60 min after treatment with E2 alone or in combination with PD 98059
This blockade of estrogen-induced MAP kinase activation by PD 980959 results in the suppression of estrogen-induced growth of MCF-7 breast cancer cells (see FIG. 13).

[7] = target: plasma membranes from MCF-7 human breast cancer cells (membrane-associated estrogen receptor) (Homo sapiens, UniProt P03372); conditions: 100-fold molar excess of competitor
[8] = target: T1, HER-2 receptor / estrogen receptor association (Homo sapiens, UniProt P04626+P21860); test: Immunoprecipitation/Western blot of HER-2 receptor with ER; format: cell-based; conditions: 10 nM, 5-60 minutes, MCF-7 cells
T1 construct: endogenous in cells; host or cells: MCF-7 PAR
Description: MCF-7 breast cancer cells were treated in vitro for 5-60 minutes with 10 nM heregulin, a ligand known to activate HER-2/HER-3 receptors (3). Lysates were prepared and processed as described before (3). Samples were immunoprecipitated with anti-HER-2 antibody (IP:HER-2 receptor) prior to electrophoresis and Western blotting with anti-ER antibody H222 (IB: estrogen receptor). Estrogen receptor normally occurs as a 65- to 70-kd protein (3). The experiment shown here is representative of results from 4 other experiments. In independent experiments in which samples were immunoprecipitated with anti-ER antibody prior to electrophoresis and Western blotting with anti-HER-2 antibody, a similar association between ER and HER-2 receptors was found.
To further evaluate prior reports of cross-communication between ER and HER-2 receptors (3,24,29,54), MCF-7 PAR cells were treated in vitro with heregulin, a ligand for activation of HER-2/HER-3 receptor heterodimers (3). […] MCF-7 breast cancer cells were treated in vitro for 5-60 minutes with 10 nM heregulin, a ligand known to activate HER-2/HER-3 receptors (3). Lysates were prepared and processed as described before (3). Samples were immunoprecipitated with anti-HER-2 antibody (IP: HER-2 receptor) prior to electrophoresis and Western blotting with anti-ER antibody H222 (IB: estrogen receptor). […]

6 keto-17α-estradiol 6-(o-carboximethyloxime:BSA [Ab E2α-BSA]
cell growth after brief treatment with BSA conjugate [1]: not

17β-estradiol 17-hemisuccinate covalently linked to bovine serum albumin [Ab E2β-BSA]
cell growth after brief treatment with BSA conjugate [1]: stimulates cell growth
proliferative response to short-term treatment ([1]; 10 min treatment, counted after 48 hrs in estrogen-free media, P<0.001): stimulate cell growth
phosphorylation of MAPK isoforms ([2]; 10 nM E2β, E2α, 0.5 μM BSA conjugates): phosphorylation of MAPK isoforms is again evident
activation of Akt kinase ([3]; 10 nM E2β or 0.5 μM E2β-BSA for 20 min): significant activation

N#CC(=C(/N)Sc1ccccc1N)/C(C#N)=C(\N)Sc1ccccc1N [Ab U0126]
Inhibition of MCF-7 cell growth ([1]; 10 μM for 2 h before VH, 10 nM E2 or 1 μM E2-BSA, 72 h): Inhibition
inhibition of MAPK phosphorylation/activation induced by E2β or E2β-BSA ([2]; Ab2 10 μg/ml 2 h or U0126 25 μM 90 min preincubation): prevented activation

C[C@]12CC[C@@H]3c4ccc(O)cc4C[C@@H](CCCCCCCCC[S+]([O-])CCCC(F)(F)C(F)(F)F)[C@H]3[C@@H]1CC[C@@H]2O (stereo partly drawn) [ICI 182,780]
competition for E2β-BSA-FITC surface binding (flow cytometry) [4]: significant reduction
competition for membrane-associated binding of E2β-BSA-FITC [4]: competitively reduced
blockade of proliferative effect of E2β-BSA ([1]; 10 nM ICI 182,780 with 200 nM E2-BSA, 10 min, 48 hrs): blocked
blockade of proliferative effect of E2β-BSA ([1]; 0.5 μM E2β-BSA 10 min, 72 h): blocked
inhibition of estrogen-induced Akt kinase activation ([3]; preincubation: Ab2 10 μg/ml, ICI 182,780 1 μM, LY294002 10 μM): inhibition
inhibition of estrogen-induced MAPK activity in MCF-7 cells [5]: inhibit

COc1cccc(-c2cc(=O)c3ccccc3o2)c1N [PD 98059]
suppression of estrogen-induced growth ([1]; 20 micromolar inhibitor, estradiol-17β at 2 nM): suppression
blockade of estradiol activation of MAP kinase ([2]; pre-treatment, 20 μM): blocked
suppression of estrogen-induced serine phosphorylation of the estrogen receptor [6]: suppressed

CC(=O)[C@H]1CC[C@H]2[C@@H]3CCC4=CC(=O)CC[C@]4(C)[C@H]3CC[C@]12C [progesterone]
competition for membrane-associated binding of E2β-BSA-FITC ([4]; MCF-7 PAR cells, Ab 1 at 1 μg/ml): not
competition for E2β-BSA-FITC surface binding (flow cytometry) ([4]; MCF-7 cells, P<0.01): not effective
suppression of [3H]E2β binding to PM by unlabeled competing steroid [7]: essentially uninfluenced

C[C@]12CC[C@H]3[C@@H](CCC4=CC(=O)CC[C@@]43C)[C@@H]1CC[C@@H]2O [testosterone]
suppression of [3H]E2β binding to PM by unlabeled competing steroid [7]: essentially uninfluenced

heregulin
physical association of HER-2 receptor with estrogen receptor [8]: promotes physical association
